Measurements taken from patent EP3325465B1, “PESTICIDALLY ACTIVE PYRAZOLE DERIVATIVES” (Syngenta Participations AG, priority 2015, dated 2017).
Read-outs that look alike come from different tables or passages of the source.

Legend:
Format in all cases: in vivo
[1] = tested on: Thrips tabaci (Onion thrips); assay: Biological comparison b): insecticidal activity against Thrips tabaci, sunflower leaf discs; details: foliar, 144 h
Experimental: b) Insecticidal activity against Thrips tabaci (Onion thrips): Sunflower leaf discs were placed on agar in 24-well microtiter plates and sprayed with aqueous test solutions prepared from 10'000 ppm DMSO stock solutions. After drying the leaf discs were infested with a thrips population of mixed ages. The samples were assessed for mortality 6 days after infestation.

[2] = tested on: Spodoptera littoralis (Egyptian cotton leaf worm); assay: Spodoptera littoralis cotton leaf disc spray test, L1 larvae; details: foliar, 72 h
Method in brief: (§1)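 Leaf discs on agar sprayed with aqueous dilutions of 10'000 ppm DMSO stocks, then infested after drying: Myzus persicae (sunflower, 200 ppm, mixed ages), mortality at 6 DAT; Thrips tabaci (sunflower, mixed ages), mortality at 6 days; Tetranychus urticae (bean, mixed ages), mobile-stage mortality at 8 days; Spodoptera littoralis (cotton), five L1 larvae per disc.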

[3] = tested on: Plutella xylostella (Diamond back moth); assay: Plutella xylostella artificial diet test, L2 larvae; details: 120 h, application rate of 200 ppm, mortality and growth inhibition 5 days after infestation
Method in brief: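 Artificial diet in 24-well microtiter plates was treated by pipetting with aqueous test solutions made from 10'000 ppm DMSO stock solutions. Once dry, each well received 10 to 15 second-instar (L2) Plutella xylostella larvae. Mortality and growth inhibition were scored against untreated samples 5 days after infestation.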

[4] = tested on: Diabrotica balteata, (Corn root worm); assay: Diabrotica balteata maize sprout spray test, L2 larvae; details: 96 h
Method in brief: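 Test solutions in water, made from DMSO stock solutions at 10'000 ppm, were sprayed onto maize sprouts resting on an agar layer in 24-well microtiter plates. Once the treated sprouts had dried, each well was infested with 6 to 10 second-instar (L2) Diabrotica balteata corn rootworm larvae, and mortality was then scored as percent.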

[5] = tested on: Thrips tabaci (Onion thrips); assay: Thrips tabaci sunflower leaf disc spray test; details: foliar, 144 h, application rate of 200 ppm, mortality 6 days after infestation, mixed ages
Method in brief: as §1

[6] = tested on: Tetranychus urticae (Two-spotted spider mite); assay: Tetranychus urticae bean leaf disc spray test; details: foliar, 192 h, application rate of 200 ppm, mortality on mixed population (mobile stages) 8 days after infestation
Method in brief: as §1

[7] = tested on: Euschistus heros (Neotropical Brown Stink Bug); assay: Euschistus heros soybean plant spray test, N2 nymphs; details: 120 h, read-out: mortality of Euschistus heros
Description: (§2) The pesticidal/insecticidal properties of the compounds according to embodiments 1 or 2 can be illustrated via the following tests: Spodoptera littoralis (Egyptian cotton leaf worm) • Cotton leaf discs were placed onto agar in 24-well microtiter plates and sprayed with aqueous test solutions prepared from 10'000 ppm DMSO stock solutions. After drying the leaf discs were infested with five L1 larvae. […] Plutella xylostella (Diamond back moth): 24-well microtiter plates with artificial diet were treated with aqueous test solutions prepared from 10'000 ppm DMSO stock solutions by pipetting. After drying, the plates were infested with L2 larvae (10 to 15 per well). The samples were assessed for mortality and growth inhibition in comparison to untreated samples 5 days after infestation. […] Diabrotica balteata, (Corn root worm) • Maize sprouts placed onto an agar layer in 24-well microtiter plates were treated with aqueous test solutions prepared from 10'000 ppm DMSO stock solutions by spraying. After drying, the plates were infested with L2 larvae (6 to 10 per well). […] Thrips tabaci (Onion thrips): Sunflower leaf discs were placed on agar in 24-well microtiter plates and sprayed with aqueous test solutions prepared from 10'000 ppm DMSO stock solutions. After drying the leaf discs were infested with a thrips population of mixed ages. The samples were assessed for mortality 6 days after infestation. […] Tetranychus urticae (Two-spotted spider mite): Bean leaf discs on agar in 24-well microtiter plates were sprayed with aqueous test solutions prepared from 10'000 ppm DMSO stock solutions. After drying the leaf discs were infested with a mite population of mixed ages. The samples were assessed for mortality on mixed population (mobile stages) 8 days after infestation. […] Euschistus heros (Neotropical Brown Stink Bug): • Two weeks old soybean plants were sprayed in a turn table spray chamber with the diluted spray solutions. After drying 2 soybean seeds were added and plants were infested with 10 N2 nymphs of the neotropical brown stink bug Euschistus heros in plastic test boxes. The samples were assessed for mortality in comparison to untreated samples 5 days after infestation. • The following compounds gave at least 80% mortality of Euschistus heros at an application rate of 12.5 ppm: Compounds 3 , 4 , 8 , 39 , 43 , 44 , 46 , 75 , 76 , 77 , 78 , 79 , 80 , 81 , 82 , 88 , 90 , 93 and 95 . Myzus persicae (Green peach aphid): Sunflower leaf discs were placed on agar in a 24-well microtiter plate and sprayed with test solutions at an application rate of 200 ppm. After drying, the leaf discs were infested with an aphid population of mixed ages. After an incubation period of 6 DAT, samples were checked for mortality. The following compounds gave at least 50% mortality of Myzus persicae: Compounds 3 , 4 , 8 , 43 , 44 , 75 , 76 , 77 , 80 , 81 , 90 and 92 . Myzus persicae (Green peach aphid): • Test compounds were applied by pipette into 24 well plates and mixed with Sucrose solution. Application rate: 12.5ppm. The plates were closed with a stretched parafilm. A plastic stencil with 24 holes is placed onto the plate and infested pea seedlings were placed directly on the Parafilm. The infested plate is closed with a gel blotting paper and another plastic stencil and then turned upside down. […]

[8] = tested on: Myzus persicae (Green peach aphid); assay: Myzus persicae sunflower leaf disc spray test; details: foliar, 144 h, read-out: mortality of Myzus persicae
Description: as §2

[9] = tested on: Myzus persicae (Green peach aphid); assay: Myzus persicae sucrose solution / Parafilm feeding test; details: 120 h, read-out: mortality of Myzus persicae
Description: as §2

[10] = tested on: Diabrotica balteata (Corn root worm); assay: Biological comparison a): insecticidal activity against Diabrotica balteata, maize sprouts; details: 96 h, 4 days after infestation
Description: as §2

[11] = tested on: Spodoptera littoralis (Egyptian cotton leaf worm); assay: Biological comparison c): insecticidal activity against Spodoptera littoralis, larvicide L-3, feeding/contact, soybean plants; details: 120 h, 5 days after infestation, L3 larvae
Description: c) Insecticidal activity against Spodoptera littoralis (Egyptian cotton leaf worm): (larvicide L-3, feeding/contact) Soybean plants are sprayed with diluted test solutions in an application chamber. The plants (2 replicates) are infested with 10 L3 larvae 1 day after treatment. Samples are checked 5 days after infestation for mortality, feeding behavior, and growth regulation.

[12] = application rate of 200 ppm, 3 days after infestation, L1 larvae, read-out: mortality
[13] = application rate of 200 ppm, 4 days after infestation, L2 larvae, read-out: mortality
[14] = application rate of 12.5 ppm, 5 days after infestation, N2 nymphs
[15] = application rate of 200 ppm, leaf disc spray, 6 DAT
[16] = Application rate: 12.5ppm, sucrose solution, 5 days after infestation

Structure (SMILES)	pest or weed control at 200 ppm [3] [%]	pest or weed control at 200 ppm [5] [%]	pest or weed control at 200 ppm [6] [%]	mortality at 200 ppm [2, 12] [%]	mortality at 200 ppm [4, 13] [%]	mortality at 12.5 ppm [7, 14] [%]	mortality at 200 ppm [8, 15] [%]	mortality at 12.5 ppm [9, 16] [%]	also measured
Cn1nc(C(F)(F)C(F)(F)F)c(C(F)(F)F)c1-n1cc(-c2ccc(Cl)c(C(=O)NC3(C#N)CC3)c2)cn1 [B, reference compound]	–	–	–	–	–	–	–	–	mortality at 0.781 ppm [1]: 0%; mortality at 3.12 ppm [1]: 25%; mortality at 12.5 ppm [1]: 90%; mortality at 50 ppm [1]: 100%; mortality at 200 ppm [1]: 100%
Cn1nc(C(F)(F)C(F)(F)F)c(C(F)(F)F)c1-c1cc(-c2ccc(Cl)c(C(=O)NC3(C#N)CC3)c2)no1 [Compound 3, 2-chloro-N-(1-cyanocyclopropyl)-5-[5-[2-methyl-5-(1,1,2,2,2-pentafluoroethyl)-4-(trifluoromethyl)pyrazol-3-yl]isoxazol-3-yl]benzamide]	≥ 80	≥ 80	≥ 80	–	–	–	–	–	mortality at 200 ppm [2]: ≥ 80%; mortality at 200 ppm [4]: ≥ 80%; mortality at 12.5 ppm [7]: ≥ 80%; mortality at 200 ppm [8]: ≥ 50%; mortality at 12.5 ppm [9]: ≥ 50%
Cn1nc(C(F)(F)C(F)(F)F)c(C(F)(F)F)c1-c1cc(-c2ccc(Cl)c(C(=O)NC3(C#N)CC3)c2)on1 [Compound 4, 2-chloro-N-(1-cyanocyclopropyl)-5-[3-[2-methyl-5-(1,1,2,2,2-pentafluoroethyl)-4-(trifluoromethyl)pyrazol-3-yl]isoxazol-5-yl]benzamide]	≥ 80	≥ 80	≥ 80	≥ 80	≥ 80	≥ 80	≥ 50	≥ 80	mortality at 0.195 ppm ([10]; Concentration 0.195 ppm): 100%; mortality at 0.781 ppm ([10]; Concentration 0.781 ppm): 100%; mortality at 3.12 ppm ([10]; Concentration 3.12 ppm): 100%; mortality at 12.5 ppm ([10]; Concentration 12.5 ppm): 100%; mortality at 50 ppm ([10]; Concentration 50 ppm): 100%; mortality at 0.781 ppm ([1]; Concentration 0.781 ppm, 6 days after infestation, read-out: Mortality (%)): 50%; mortality at 3.12 ppm ([1]; Concentration 3.12 ppm, 6 days after infestation, read-out: Mortality (%)): 65%; mortality at 12.5 ppm ([1]; Concentration 12.5 ppm, 6 days after infestation, read-out: Mortality (%)): 80%; mortality at 50 ppm ([1]; Concentration 50 ppm, 6 days after infestation, read-out: Mortality (%)): 100%; mortality at 200 ppm ([1]; Concentration 200 ppm, 6 days after infestation, read-out: Mortality (%)): 100%
Cn1nc(C(F)(F)C(F)(F)F)c(C(F)(F)F)c1-c1cc(-c2ccc(Cl)c(C(=O)NC3CC3)c2)sn1 [Compound 43, 2-chloro-N-cyclopropyl-5-[3-[2-methyl-5-(1,1,2,2,2-pentafluoroethyl)-4-(trifluoromethyl)pyrazol-3-yl]isothiazol-5-yl]benzamide]	≥ 80	≥ 80	≥ 80	≥ 80	≥ 80	≥ 80	≥ 50	≥ 80	–
Cn1nc(C(F)(F)C(F)(F)F)c(C(F)(F)F)c1-c1cc(-c2ccc(Cl)c(C(=O)NC3(C#N)CC3)c2)sn1 [Compound 44, 2-chloro-N-(1-cyanocyclopropyl)-5-[3-[2-methyl-5-(1,1,2,2,2-pentafluoroethyl)-4-(trifluoromethyl)pyrazol-3-yl]isothiazol-5-yl]benzamide]	≥ 80	≥ 80	≥ 80	≥ 80	≥ 80	≥ 80	≥ 50	≥ 80	mortality at 0.05 ppm ([11]; Concentration 0.05 ppm): 0%; mortality at 0.2 ppm ([11]; Concentration 0.2 ppm): 0%; mortality at 0.8 ppm ([11]; Concentration 0.8 ppm): 50%; mortality at 3 ppm ([11]; Concentration 3 ppm): 95%; mortality at 12.5 ppm ([11]; Concentration 12.5 ppm): 100%
Cn1nc(C(F)(F)C(F)(F)F)c(C(F)(F)F)c1-c1cc(-c2ccc(Cl)c(C(=O)NC3(C(N)=S)CC3)c2)on1 [Compound 76, N-(1-carbamothioylcyclopropyl)-2-chloro-5-[3-[2-methyl-5-(1,1,2,2,2-pentafluoroethyl)-4-(trifluoromethyl)pyrazol-3-yl]isoxazol-5-yl]benzamide]	≥ 80	≥ 80	≥ 80	≥ 80	≥ 80	≥ 80	≥ 50	≥ 80	–
Cn1nc(C(F)(F)C(F)(F)F)c(C(F)(F)F)c1-c1cc(-c2ccc(Cl)c(C(=O)NC3(C(N)=O)CC3)c2)on1 [Compound 77, N-(1-carbamoylcyclopropyl)-2-chloro-5-[3-[2-methyl-5-(1,1,2,2,2-pentafluoroethyl)-4-(trifluoromethyl)pyrazol-3-yl]isoxazol-5-yl]benzamide]	≥ 80	≥ 80	≥ 80	≥ 80	–	≥ 80	≥ 50	≥ 80	–
Cn1nc(C(F)(F)C(F)(F)F)c(C(F)(F)F)c1-c1cc(-c2ccc(Cl)c(C(=O)NC3CC3F)c2)on1 (stereo not drawn) [Compound 81, 2-chloro-N-(2-fluorocyclopropyl)-5-[3-[2-methyl-5-(1,1,2,2,2-pentafluoroethyl)-4-(trifluoromethyl)pyrazol-3-yl]isoxazol-5-yl]benzamide]	≥ 80	≥ 80	≥ 80	≥ 80	≥ 80	≥ 80	≥ 50	≥ 80	–
